Test results taken from PubChem BioAssay (NCI).
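Method: 48-hour compound exposure of cells in 96-well plates, five concentrations, linear interpolation of endpoints. TGI: concentration producing complete growth inhibition.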

What was measured:
Assay in all cases: DTP human tumour cell line panel, 48 h
[1] = system: K-562 leukemia
[2] = system: SF-268 CNS
[3] = system: BT-549 breast
[4] = system: UACC-257 melanoma
[5] = system: SF-295 CNS
[6] = system: SK-MEL-28 melanoma
[7] = system: LOX IMVI melanoma
[8] = system: MDA-N
[9] = system: T-47D breast
[10] = system: PC-3 prostate
[11] = system: ACHN renal
[12] = system: SNB-19 CNS
[13] = system: OVCAR-5 ovarian
[14] = system: U251 CNS
[15] = system: MOLT-4 leukemia
[16] = system: KM12 colon
[17] = system: NCI-H23 lung
[18] = system: SK-MEL-2 melanoma
[19] = system: CCRF-CEM leukemia

Q: `O=c1c2ccccc2nc(-c2cc3c(cc2Cl)Sc2nccn2S3(=O)=O)n1-c1ccccc1` was tested. Which TGI [1] did it give?
A: > 100 µM

Q: And the TGI [2]?
A: 22.2 µM

Q: And the TGI [3]?
A: > 100 µM

Q: And the TGI [4]?
A: 34.2 µM

Q: What about the TGI [5] of the same compound?
A: 52.9 µM

Q: What about the TGI [6] of the same compound?
A: 41.8 µM

Q: And the TGI [7]?
A: > 100 µM

Q: What about the TGI [8] of the same compound?
A: 33.8 µM

Q: What about the TGI [9] of the same compound?
A: 23.8 µM

Q: And the TGI [10]?
A: 30.8 µM

Q: What about the TGI [11] of the same compound?
A: > 100 µM

Q: And the TGI [12]?
A: > 100 µM

Q: And the TGI [13]?
A: > 100 µM

Q: And the TGI [14]?
A: 30.5 µM

Q: And the TGI [15]?
A: > 100 µM

Q: What about the TGI [16] of the same compound?
A: 24.7 µM

Q: And the TGI [17]?
A: > 100 µM

Q: What about the TGI [18] of the same compound?
A: 43.5 µM

Q: Which TGI [1] does the source give for `OC1c2ccccc2CC12Cc1ccccc1C2` (stereo unspecified) here?
A: > 100 µM

Q: What about the TGI [2] of the same compound?
A: > 100 µM

Q: What about the TGI [4] of the same compound?
A: > 100 µM

Q: What about the TGI [5] of the same compound?
A: > 100 µM

Q: What about the TGI [6] of the same compound?
A: > 100 µM

Q: What about the TGI [7] of the same compound?
A: > 100 µM

Q: And the TGI [8]?
A: > 100 µM

Q: And the TGI [9]?
A: > 100 µM

Q: What about the TGI [10] of the same compound?
A: > 100 µM

Q: What about the TGI [11] of the same compound?
A: > 100 µM

Q: What about the TGI [12] of the same compound?
A: > 100 µM

Q: And the TGI [13]?
A: > 100 µM

Q: And the TGI [14]?
A: > 100 µM

Q: And the TGI [19]?
A: > 100 µM

Q: What about the TGI [15] of the same compound?
A: > 100 µM

Q: What about the TGI [16] of the same compound?
A: > 100 µM

Q: And the TGI [17]?
A: > 100 µM

Q: And the TGI [18]?
A: > 100 µM

Q: Which results are given for `O=C(O)Cc1c(-c2ccc([N+](=O)[O-])cc2)c(=O)oc2cc(O)ccc12`?
A: TGI [1]: > 100 µM; TGI [2]: > 100 µM; TGI [3]: 59.1 µM; TGI [4]: 53.5 µM; TGI [5]: 49.9 µM; TGI [6]: > 100 µM; TGI [7]: > 100 µM; TGI [8]: > 100 µM; TGI [10]: 94.5 µM; TGI [11]: 91.8 µM; TGI [12]: > 100 µM; TGI [13]: 98.9 µM; TGI [14]: 53.5 µM; TGI [19]: 88.8 µM; TGI [15]: 26.8 µM; TGI [16]: 93.5 µM; TGI [17]: > 100 µM; TGI [18]: 50.7 µM

Q: Which results are given for `CC1=NN(c2cccc(Cl)c2)C(=N/c2nc3ccccc3s2)/C1=C\c1ccc(Cl)cc1`?
A: TGI [1]: > 100 µM; TGI [2]: 38.6 µM; TGI [4]: 51.2 µM; TGI [5]: 61.6 µM; TGI [6]: 45.2 µM; TGI [7]: 34 µM; TGI [8]: 56.1 µM; TGI [9]: > 100 µM; TGI [10]: 31.3 µM; TGI [11]: 58.9 µM; TGI [13]: 40.4 µM; TGI [14]: 28.7 µM; TGI [19]: 96.9 µM; TGI [15]: 73.7 µM; TGI [17]: 39.3 µM; TGI [18]: 34.2 µM

Q: Which results are given for `O=S1(=O)OCCOS(=O)(=O)C1S(=O)(=O)c1ccc2ccccc2c1`?
A: TGI [1]: > 100 µM; TGI [3]: > 100 µM; TGI [4]: > 100 µM; TGI [5]: > 100 µM; TGI [6]: > 100 µM; TGI [7]: > 100 µM; TGI [8]: > 100 µM; TGI [10]: > 100 µM; TGI [11]: > 100 µM; TGI [12]: > 100 µM; TGI [13]: > 100 µM; TGI [14]: > 100 µM; TGI [19]: > 100 µM; TGI [15]: > 100 µM; TGI [16]: > 100 µM; TGI [17]: > 100 µM; TGI [18]: > 100 µM

Q: For `O=NN1C(c2ccccc2)CC(=NO)CC1c1ccccc1` (stereo unspecified), which TGI [1] is on record?
A: > 100 µM

Q: And the TGI [2]?
A: > 100 µM

Q: What about the TGI [3] of the same compound?
A: > 100 µM

Q: What about the TGI [4] of the same compound?
A: > 100 µM

Q: And the TGI [5]?
A: > 100 µM

Q: And the TGI [6]?
A: > 100 µM

Q: And the TGI [7]?
A: > 100 µM

Q: And the TGI [8]?
A: > 100 µM

Q: What about the TGI [9] of the same compound?
A: > 100 µM

Q: And the TGI [10]?
A: > 100 µM

Q: What about the TGI [11] of the same compound?
A: > 100 µM

Q: And the TGI [12]?
A: > 100 µM

Q: What about the TGI [14] of the same compound?
A: > 100 µM

Q: And the TGI [15]?
A: > 100 µM

Q: What about the TGI [16] of the same compound?
A: > 100 µM

Q: What about the TGI [17] of the same compound?
A: > 100 µM

Q: What about the TGI [18] of the same compound?
A: > 100 µM

Q: `N#CC(C#N)=C1c2ccccc2C(=NN)c2ccccc21` was tested. Which TGI [1] did it give?
A: > 100 µM

Q: What about the TGI [2] of the same compound?
A: > 100 µM

Q: What about the TGI [3] of the same compound?
A: > 100 µM

Q: What about the TGI [4] of the same compound?
A: > 100 µM

Q: What about the TGI [5] of the same compound?
A: > 100 µM

Q: What about the TGI [6] of the same compound?
A: > 100 µM

Q: And the TGI [8]?
A: > 100 µM

Q: And the TGI [10]?
A: > 100 µM

Q: What about the TGI [11] of the same compound?
A: > 63.9 µM

Q: What about the TGI [12] of the same compound?
A: > 100 µM

Q: And the TGI [13]?
A: > 100 µM

Q: What about the TGI [14] of the same compound?
A: > 100 µM

Q: What about the TGI [19] of the same compound?
A: > 100 µM

Q: What about the TGI [15] of the same compound?
A: > 100 µM

Q: And the TGI [16]?
A: > 100 µM

Q: What about the TGI [18] of the same compound?
A: > 100 µM

Q: For `N#C[C@@H](c1nc2ccccc2s1)c1ncccc1[N+](=O)[O-]`, which TGI [2] is on record?
A: > 31.6 µM

Q: And the TGI [3]?
A: 26.9 µM

Q: What about the TGI [4] of the same compound?
A: > 100 µM

Q: And the TGI [5]?
A: 40.7 µM

Q: What about the TGI [7] of the same compound?
A: 13.9 µM

Q: And the TGI [8]?
A: > 31.6 µM

Q: What about the TGI [9] of the same compound?
A: 25 µM

Q: What about the TGI [10] of the same compound?
A: 18.1 µM

Q: And the TGI [11]?
A: > 31.6 µM

Q: What about the TGI [12] of the same compound?
A: 17.4 µM

Q: What about the TGI [13] of the same compound?
A: > 31.6 µM

Q: What about the TGI [14] of the same compound?
A: 11.7 µM

Q: What about the TGI [15] of the same compound?
A: > 31.6 µM

Q: And the TGI [16]?
A: > 62.9 µM

Q: And the TGI [17]?
A: 16.1 µM

Q: What about the TGI [18] of the same compound?
A: > 31.6 µM

Q: With `COC(=O)/C=C\COCC1C2CCC(=O)C21` (stereo unspecified) as the compound, how does the TGI [1] read?
A: > 25 µM

Q: And the TGI [2]?
A: > 25 µM

Q: What about the TGI [3] of the same compound?
A: > 25 µM

Q: What about the TGI [4] of the same compound?
A: > 25 µM

Q: And the TGI [5]?
A: > 25 µM

Q: And the TGI [6]?
A: > 25 µM

Q: And the TGI [7]?
A: > 25 µM

Q: And the TGI [8]?
A: > 25 µM

Q: What about the TGI [10] of the same compound?
A: > 25 µM

Q: And the TGI [11]?
A: > 25 µM

Q: And the TGI [12]?
A: > 25 µM

Q: What about the TGI [13] of the same compound?
A: > 25 µM

Q: And the TGI [14]?
A: > 25 µM

Q: And the TGI [19]?
A: 16.2 µM

Q: And the TGI [15]?
A: 20.7 µM

Q: And the TGI [16]?
A: > 25 µM

Q: What about the TGI [17] of the same compound?
A: > 25 µM

Q: And the TGI [18]?
A: > 25 µM

Q: For `C=C[C@@]1(C)CC[C@@H]2[C@@]3(C1)O[C@H]3CC1[C@](C)(C(=O)OC)CCC[C@@]12C` (stereo partly specified), which TGI [1] is on record?
A: > 100 µM

Q: What about the TGI [2] of the same compound?
A: 38.4 µM

Q: What about the TGI [3] of the same compound?
A: 67.2 µM

Q: And the TGI [4]?
A: 44.3 µM

Q: And the TGI [5]?
A: 29.3 µM

Q: And the TGI [6]?
A: 42.1 µM

Q: What about the TGI [8] of the same compound?
A: 56.8 µM

Q: And the TGI [9]?
A: 55.9 µM

Q: What about the TGI [10] of the same compound?
A: > 100 µM

Q: What about the TGI [11] of the same compound?
A: 29.5 µM

Q: What about the TGI [12] of the same compound?
A: 30.3 µM

Q: And the TGI [13]?
A: 32.3 µM

Q: And the TGI [14]?
A: 49.6 µM

Q: And the TGI [15]?
A: 42.2 µM

Q: And the TGI [16]?
A: > 100 µM

Q: And the TGI [17]?
A: 57.2 µM

Q: What about the TGI [18] of the same compound?
A: 41.4 µM

Q: With `C/C(=C(/C)c1ccc(O)cc1)c1ccc(O)cc1` as the compound, how does the TGI [1] read?
A: > 100 µM

Q: And the TGI [2]?
A: > 100 µM

Q: What about the TGI [3] of the same compound?
A: > 100 µM

Q: And the TGI [4]?
A: > 100 µM

Q: What about the TGI [8] of the same compound?
A: > 100 µM

Q: And the TGI [10]?
A: > 100 µM

Q: What about the TGI [11] of the same compound?
A: > 100 µM

Q: And the TGI [12]?
A: > 100 µM

Q: What about the TGI [13] of the same compound?
A: > 100 µM

Q: And the TGI [14]?
A: > 100 µM

Q: What about the TGI [19] of the same compound?
A: > 100 µM

Q: What about the TGI [15] of the same compound?
A: > 100 µM

Q: What about the TGI [16] of the same compound?
A: > 100 µM

Q: And the TGI [17]?
A: > 100 µM

Q: And the TGI [18]?
A: > 100 µM
